Source: ChEMBL document CHEMBL4507268 (2021)

Columns and labels:
Details in all cases: Compound concentration 1.0 uM
[1] = molecular target: ALK tyrosine kinase receptor (Homo sapiens) (UniProt Q9UM73)
[2] = molecular target: Activin receptor type-1-like (Homo sapiens) (UniProt P37023)
[3] = molecular target: Calcium/calmodulin-dependent protein kinase type II subunit alpha (Homo sapiens) (UniProt Q9UQM7)
[4] = molecular target: Death-associated protein kinase 1 (Homo sapiens) (UniProt P53355)
[5] = molecular target: Dual specificity tyrosine-phosphorylation-regulated kinase 1B (Homo sapiens) (UniProt Q9Y463)
[6] = molecular target: Receptor tyrosine-protein kinase erbB-4 (Homo sapiens) (UniProt Q15303)
[7] = molecular target: Hepatocyte growth factor receptor (Homo sapiens) (UniProt P08581)
[8] = molecular target: T1, Dual specificity mitogen-activated protein kinase kinase 3 (Homo sapiens) (UniProt P46734)
T1 sequence (whole entry): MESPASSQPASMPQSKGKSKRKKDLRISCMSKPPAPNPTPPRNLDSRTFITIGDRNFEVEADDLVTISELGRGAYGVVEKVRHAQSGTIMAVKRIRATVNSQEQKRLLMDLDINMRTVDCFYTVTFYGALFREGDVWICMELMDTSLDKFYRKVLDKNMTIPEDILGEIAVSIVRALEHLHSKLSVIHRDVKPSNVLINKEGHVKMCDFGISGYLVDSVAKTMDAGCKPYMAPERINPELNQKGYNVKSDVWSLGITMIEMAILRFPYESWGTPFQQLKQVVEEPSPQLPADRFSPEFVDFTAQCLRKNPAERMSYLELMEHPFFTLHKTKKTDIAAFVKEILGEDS

[9] = molecular target: T2, Serine/threonine-protein kinase NLK (Homo sapiens) (UniProt Q9UBE8)
T2 sequence (whole entry): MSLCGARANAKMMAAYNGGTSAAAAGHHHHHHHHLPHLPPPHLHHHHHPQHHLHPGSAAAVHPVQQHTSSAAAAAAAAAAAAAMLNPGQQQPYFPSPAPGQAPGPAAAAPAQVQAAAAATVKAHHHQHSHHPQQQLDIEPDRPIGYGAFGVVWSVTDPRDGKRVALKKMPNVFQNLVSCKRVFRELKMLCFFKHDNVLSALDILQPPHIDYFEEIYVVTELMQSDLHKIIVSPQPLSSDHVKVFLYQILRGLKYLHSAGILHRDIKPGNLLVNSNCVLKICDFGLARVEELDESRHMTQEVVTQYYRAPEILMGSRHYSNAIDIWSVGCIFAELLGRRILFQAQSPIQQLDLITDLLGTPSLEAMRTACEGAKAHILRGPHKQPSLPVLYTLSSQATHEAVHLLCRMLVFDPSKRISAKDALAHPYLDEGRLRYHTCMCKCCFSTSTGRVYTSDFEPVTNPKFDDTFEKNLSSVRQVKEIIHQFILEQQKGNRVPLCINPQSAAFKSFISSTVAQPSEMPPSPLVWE

[10] = molecular target: [Pyruvate dehydrogenase (acetyl-transferring)] kinase isozyme 1, mitochondrial (Homo sapiens) (UniProt Q15118)
[11] = molecular target: Protein kinase C theta type (Homo sapiens) (UniProt Q04759)
[12] = molecular target: T3, Serine/threonine-protein kinase Sgk1 (Homo sapiens) (UniProt O00141)
T3 sequence (whole entry): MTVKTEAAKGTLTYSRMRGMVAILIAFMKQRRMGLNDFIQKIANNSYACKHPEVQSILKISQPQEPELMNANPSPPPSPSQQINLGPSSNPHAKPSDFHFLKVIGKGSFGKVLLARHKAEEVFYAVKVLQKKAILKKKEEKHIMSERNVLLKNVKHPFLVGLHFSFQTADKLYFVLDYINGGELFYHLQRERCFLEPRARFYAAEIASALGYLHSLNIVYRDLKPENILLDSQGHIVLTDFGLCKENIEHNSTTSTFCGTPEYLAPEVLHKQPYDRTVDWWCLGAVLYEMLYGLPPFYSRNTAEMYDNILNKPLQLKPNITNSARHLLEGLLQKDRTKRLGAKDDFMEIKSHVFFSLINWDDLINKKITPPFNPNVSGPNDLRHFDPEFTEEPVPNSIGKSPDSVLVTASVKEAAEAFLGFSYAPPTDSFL

[13] = molecular target: T4, Serine/threonine-protein kinase Sgk2 (Homo sapiens) (UniProt Q9HBY8)
T4 sequence (whole entry): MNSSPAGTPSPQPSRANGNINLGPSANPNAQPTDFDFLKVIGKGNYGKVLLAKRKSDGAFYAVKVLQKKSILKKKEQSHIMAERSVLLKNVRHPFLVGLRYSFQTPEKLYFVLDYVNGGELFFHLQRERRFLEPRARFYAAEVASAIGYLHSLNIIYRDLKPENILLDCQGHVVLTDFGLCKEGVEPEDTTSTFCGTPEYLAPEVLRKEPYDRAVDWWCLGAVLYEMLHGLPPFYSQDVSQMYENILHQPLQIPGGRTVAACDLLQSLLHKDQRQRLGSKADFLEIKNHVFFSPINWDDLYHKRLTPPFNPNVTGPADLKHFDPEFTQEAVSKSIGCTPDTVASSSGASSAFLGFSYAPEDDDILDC

[14] = molecular target: T5, Testis-specific serine/threonine-protein kinase 3 (Homo sapiens) (UniProt Q96PN8)
T5 sequence (whole entry): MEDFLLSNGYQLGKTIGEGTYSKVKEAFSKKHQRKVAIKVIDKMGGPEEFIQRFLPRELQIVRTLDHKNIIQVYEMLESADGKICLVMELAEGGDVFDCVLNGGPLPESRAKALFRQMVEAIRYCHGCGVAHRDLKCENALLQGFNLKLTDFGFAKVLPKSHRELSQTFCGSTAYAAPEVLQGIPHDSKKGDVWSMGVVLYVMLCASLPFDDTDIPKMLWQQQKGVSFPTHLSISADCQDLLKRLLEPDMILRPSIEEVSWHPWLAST

Measured: % residual kinase activity

Hepatocyte growth factor receptor (Homo sapiens), sequence (P08581 whole entry): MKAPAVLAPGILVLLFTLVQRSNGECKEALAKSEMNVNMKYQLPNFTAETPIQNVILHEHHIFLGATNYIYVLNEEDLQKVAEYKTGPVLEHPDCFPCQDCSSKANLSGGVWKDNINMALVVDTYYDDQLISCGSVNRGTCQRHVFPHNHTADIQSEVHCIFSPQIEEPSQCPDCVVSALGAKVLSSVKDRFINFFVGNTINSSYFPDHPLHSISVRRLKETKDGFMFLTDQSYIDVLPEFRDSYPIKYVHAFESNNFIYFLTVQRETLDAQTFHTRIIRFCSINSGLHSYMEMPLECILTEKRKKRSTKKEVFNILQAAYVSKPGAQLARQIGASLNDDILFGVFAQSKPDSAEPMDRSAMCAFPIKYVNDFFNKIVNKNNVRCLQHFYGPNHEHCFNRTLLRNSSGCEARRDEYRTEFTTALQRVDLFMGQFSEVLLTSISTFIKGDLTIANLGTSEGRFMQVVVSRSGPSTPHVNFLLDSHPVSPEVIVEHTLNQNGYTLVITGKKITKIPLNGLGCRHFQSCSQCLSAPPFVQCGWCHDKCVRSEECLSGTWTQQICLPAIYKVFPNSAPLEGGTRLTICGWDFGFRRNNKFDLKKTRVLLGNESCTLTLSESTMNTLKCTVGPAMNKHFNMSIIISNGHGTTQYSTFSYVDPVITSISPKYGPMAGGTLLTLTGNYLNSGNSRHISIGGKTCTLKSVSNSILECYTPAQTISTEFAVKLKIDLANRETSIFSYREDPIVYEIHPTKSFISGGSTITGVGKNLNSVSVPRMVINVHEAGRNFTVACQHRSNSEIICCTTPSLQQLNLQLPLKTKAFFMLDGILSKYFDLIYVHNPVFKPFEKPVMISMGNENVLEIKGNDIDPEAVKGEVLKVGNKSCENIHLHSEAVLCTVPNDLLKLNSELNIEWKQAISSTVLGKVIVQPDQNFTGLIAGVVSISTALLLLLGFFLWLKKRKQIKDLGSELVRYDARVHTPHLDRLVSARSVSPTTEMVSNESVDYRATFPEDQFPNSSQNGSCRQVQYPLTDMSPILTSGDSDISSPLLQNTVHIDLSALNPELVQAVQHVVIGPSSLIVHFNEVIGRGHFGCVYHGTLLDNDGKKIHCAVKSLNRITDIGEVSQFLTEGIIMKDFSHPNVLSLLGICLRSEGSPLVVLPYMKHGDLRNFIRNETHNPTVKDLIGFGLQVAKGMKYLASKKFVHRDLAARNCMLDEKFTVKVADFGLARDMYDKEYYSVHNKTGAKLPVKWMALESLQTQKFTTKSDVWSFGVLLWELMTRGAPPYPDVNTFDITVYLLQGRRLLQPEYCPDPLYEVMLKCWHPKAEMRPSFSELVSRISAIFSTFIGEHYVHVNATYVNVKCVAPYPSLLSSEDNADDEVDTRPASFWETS
Death-associated protein kinase 1 (Homo sapiens), sequence (P53355 whole entry, looked up): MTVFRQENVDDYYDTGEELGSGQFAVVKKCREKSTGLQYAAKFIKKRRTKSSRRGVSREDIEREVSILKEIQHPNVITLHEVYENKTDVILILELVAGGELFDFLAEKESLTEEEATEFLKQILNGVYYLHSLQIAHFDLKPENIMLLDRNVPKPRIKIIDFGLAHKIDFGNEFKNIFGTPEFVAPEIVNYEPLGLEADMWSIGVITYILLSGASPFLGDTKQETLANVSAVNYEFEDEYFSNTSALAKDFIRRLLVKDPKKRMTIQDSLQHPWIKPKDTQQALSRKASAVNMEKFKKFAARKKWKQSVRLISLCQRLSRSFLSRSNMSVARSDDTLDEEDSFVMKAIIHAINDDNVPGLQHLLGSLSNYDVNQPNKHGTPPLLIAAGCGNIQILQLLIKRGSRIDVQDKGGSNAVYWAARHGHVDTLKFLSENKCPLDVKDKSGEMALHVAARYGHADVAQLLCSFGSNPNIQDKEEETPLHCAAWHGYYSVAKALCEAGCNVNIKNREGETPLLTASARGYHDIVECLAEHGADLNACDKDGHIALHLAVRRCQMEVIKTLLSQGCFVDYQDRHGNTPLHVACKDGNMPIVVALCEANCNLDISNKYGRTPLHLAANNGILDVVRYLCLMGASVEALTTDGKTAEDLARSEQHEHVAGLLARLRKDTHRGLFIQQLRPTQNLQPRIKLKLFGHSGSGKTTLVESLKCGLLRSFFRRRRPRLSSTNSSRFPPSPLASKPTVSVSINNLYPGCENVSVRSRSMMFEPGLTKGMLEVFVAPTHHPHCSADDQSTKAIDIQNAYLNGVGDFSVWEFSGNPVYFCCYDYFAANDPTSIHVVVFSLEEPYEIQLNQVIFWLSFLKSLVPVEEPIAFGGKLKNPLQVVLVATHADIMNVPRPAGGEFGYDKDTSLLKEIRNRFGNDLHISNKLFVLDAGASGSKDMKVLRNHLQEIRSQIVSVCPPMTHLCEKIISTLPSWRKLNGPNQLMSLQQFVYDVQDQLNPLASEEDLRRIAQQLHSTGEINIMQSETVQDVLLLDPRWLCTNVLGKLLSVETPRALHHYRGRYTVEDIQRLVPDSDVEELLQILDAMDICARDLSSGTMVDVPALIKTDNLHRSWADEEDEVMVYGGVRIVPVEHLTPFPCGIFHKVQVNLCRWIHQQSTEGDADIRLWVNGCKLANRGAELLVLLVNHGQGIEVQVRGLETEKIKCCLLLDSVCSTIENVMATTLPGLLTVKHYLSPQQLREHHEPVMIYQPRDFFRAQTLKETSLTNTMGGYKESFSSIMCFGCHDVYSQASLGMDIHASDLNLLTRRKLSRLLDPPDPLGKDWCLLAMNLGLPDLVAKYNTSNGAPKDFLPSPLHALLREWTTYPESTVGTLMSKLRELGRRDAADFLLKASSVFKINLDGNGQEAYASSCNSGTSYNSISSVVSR
ALK tyrosine kinase receptor (Homo sapiens), sequence (Q9UM73 19-1620 limits assumed): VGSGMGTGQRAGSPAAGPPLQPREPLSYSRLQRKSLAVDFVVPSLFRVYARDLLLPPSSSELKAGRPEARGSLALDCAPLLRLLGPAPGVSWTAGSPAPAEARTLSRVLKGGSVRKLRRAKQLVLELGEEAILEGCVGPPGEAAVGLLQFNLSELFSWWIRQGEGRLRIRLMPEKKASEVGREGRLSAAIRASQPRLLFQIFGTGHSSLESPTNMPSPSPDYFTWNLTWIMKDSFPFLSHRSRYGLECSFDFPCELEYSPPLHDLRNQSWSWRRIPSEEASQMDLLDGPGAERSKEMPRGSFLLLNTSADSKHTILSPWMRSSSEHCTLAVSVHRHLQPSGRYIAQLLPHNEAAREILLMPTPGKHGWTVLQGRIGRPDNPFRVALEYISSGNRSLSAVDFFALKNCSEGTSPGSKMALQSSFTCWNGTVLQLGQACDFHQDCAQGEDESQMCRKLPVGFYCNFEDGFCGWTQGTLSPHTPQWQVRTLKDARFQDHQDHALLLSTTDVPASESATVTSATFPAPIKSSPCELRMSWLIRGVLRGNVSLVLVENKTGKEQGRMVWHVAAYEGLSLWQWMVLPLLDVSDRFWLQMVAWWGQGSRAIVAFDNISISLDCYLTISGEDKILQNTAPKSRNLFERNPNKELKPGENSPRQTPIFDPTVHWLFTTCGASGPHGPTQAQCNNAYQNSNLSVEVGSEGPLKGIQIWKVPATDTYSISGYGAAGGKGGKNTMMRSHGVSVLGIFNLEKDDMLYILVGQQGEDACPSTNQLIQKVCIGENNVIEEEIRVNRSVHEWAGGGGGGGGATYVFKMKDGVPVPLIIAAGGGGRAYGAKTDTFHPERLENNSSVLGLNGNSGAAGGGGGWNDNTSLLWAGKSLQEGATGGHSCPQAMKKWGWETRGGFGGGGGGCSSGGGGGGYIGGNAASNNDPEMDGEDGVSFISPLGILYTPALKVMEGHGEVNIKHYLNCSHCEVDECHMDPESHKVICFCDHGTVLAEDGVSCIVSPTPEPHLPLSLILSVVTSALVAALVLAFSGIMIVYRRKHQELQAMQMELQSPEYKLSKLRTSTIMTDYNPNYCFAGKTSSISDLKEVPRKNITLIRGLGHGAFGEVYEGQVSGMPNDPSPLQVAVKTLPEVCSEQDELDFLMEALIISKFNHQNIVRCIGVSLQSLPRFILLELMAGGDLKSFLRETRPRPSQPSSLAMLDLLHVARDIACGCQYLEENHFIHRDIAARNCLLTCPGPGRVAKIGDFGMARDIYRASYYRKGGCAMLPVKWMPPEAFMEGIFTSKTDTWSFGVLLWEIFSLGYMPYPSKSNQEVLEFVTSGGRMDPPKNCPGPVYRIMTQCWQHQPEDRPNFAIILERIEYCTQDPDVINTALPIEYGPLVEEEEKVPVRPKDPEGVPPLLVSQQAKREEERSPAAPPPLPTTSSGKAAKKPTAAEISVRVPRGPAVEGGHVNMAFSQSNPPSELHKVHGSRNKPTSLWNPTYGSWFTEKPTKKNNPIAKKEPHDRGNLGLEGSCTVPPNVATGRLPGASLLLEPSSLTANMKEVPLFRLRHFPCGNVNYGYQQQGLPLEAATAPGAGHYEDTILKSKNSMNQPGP
Activin receptor type-1-like (Homo sapiens), sequence (P37023 whole entry): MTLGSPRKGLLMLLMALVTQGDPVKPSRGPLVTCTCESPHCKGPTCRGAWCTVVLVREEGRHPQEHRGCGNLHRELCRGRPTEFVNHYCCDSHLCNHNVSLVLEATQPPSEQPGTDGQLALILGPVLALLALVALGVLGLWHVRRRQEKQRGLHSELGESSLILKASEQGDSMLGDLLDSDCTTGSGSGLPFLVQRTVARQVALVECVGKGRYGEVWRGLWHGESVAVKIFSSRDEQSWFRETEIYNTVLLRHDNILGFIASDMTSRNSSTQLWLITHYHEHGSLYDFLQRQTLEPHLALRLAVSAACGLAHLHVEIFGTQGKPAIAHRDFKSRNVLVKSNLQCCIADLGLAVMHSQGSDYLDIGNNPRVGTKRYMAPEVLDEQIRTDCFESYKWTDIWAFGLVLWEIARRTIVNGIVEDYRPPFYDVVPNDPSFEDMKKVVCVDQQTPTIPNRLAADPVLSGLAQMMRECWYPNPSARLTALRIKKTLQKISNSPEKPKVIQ

CN1CCN(c2cnc3c(C4CCN(C(=O)c5ccc(OC(F)(F)F)cc5N)CC4)ncnc3c2)CC1 [BAY-885]
inactive: [1] 121% | [2] 118% | [3] 108% | [4] 109% | [5] 106% | [6] 98% | [7] 93% | [8] 92% | [9] 111% | [10] 89% | [11] 115% | [12] 113% | [13] 89% | [14] 108%
